The target in test [1] is T1, Zinc metalloproteinase dpy-31 (Brugia malayi, UniProt A8Q2D1).
T1 sequence (A8Q2D1 whole entry): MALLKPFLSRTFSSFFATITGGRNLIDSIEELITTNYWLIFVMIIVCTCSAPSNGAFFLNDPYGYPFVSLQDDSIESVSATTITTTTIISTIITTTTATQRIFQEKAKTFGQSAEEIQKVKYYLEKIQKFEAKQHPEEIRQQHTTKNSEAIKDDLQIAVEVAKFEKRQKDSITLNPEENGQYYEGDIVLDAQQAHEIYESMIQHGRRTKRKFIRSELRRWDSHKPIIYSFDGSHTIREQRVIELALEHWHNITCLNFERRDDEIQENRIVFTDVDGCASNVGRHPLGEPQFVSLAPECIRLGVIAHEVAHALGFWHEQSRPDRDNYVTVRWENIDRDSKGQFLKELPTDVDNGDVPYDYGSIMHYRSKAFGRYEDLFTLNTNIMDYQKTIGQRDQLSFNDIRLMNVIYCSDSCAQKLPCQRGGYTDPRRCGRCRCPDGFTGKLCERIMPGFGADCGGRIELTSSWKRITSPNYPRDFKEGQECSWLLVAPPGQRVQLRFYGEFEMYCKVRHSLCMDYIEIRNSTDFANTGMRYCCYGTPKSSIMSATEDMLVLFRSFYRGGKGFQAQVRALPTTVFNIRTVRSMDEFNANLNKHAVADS
The test is described as follows: Inhibition of recombinant Brugia malayi DPY-31 astacin domain expressed in Escherichia coli using Suc-Ala-Ala-Ala-pNA as substrate preincubated for 3 hrs followed by substrate addition measured after 3 hrs by microplate reader assay.

Test [2] has as its target T2, Zinc metalloproteinase dpy-31 (Teladorsagia circumcincta, UniProt A0A0C5PRQ1).
T2 sequence (A0A0C5PRQ1 whole entry): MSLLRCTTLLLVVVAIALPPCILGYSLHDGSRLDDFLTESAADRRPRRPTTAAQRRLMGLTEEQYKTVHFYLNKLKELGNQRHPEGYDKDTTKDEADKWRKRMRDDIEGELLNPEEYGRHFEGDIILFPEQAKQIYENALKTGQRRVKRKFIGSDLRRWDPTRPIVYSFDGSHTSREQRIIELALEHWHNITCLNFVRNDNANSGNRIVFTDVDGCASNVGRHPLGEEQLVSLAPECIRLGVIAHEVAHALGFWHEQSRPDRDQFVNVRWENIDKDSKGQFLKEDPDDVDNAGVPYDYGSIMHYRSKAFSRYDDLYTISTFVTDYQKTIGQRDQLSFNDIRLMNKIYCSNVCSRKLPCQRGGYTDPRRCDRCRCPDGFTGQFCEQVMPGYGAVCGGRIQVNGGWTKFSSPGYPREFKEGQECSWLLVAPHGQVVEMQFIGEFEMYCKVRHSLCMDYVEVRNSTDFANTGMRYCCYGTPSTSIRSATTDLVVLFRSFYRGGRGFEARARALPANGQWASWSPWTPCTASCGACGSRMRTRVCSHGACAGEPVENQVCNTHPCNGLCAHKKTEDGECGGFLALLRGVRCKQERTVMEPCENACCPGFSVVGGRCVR
Kind of test: Inhibition of recombinant Teladorsagia circumcincta DPY-31 astacin domain expressed in Escherichia coli using Suc-Ala-Ala-Ala-pNA as substrate preincubated for 3 hrs followed by substrate addition measured after 3 hrs by microplate reader assay.

Test [3] has as its system Caenorhabditis elegans. The test is described as follows: Antiparasitic activity against wild type Caenorhabditis elegans N2 assessed as induction of Dpy phenotype at 50 uM measured after 3 days by microscopic analysis. The format is functional, organism-based.
Test [4] deals with Caenorhabditis elegans. The test is described as follows: Antiparasitic activity against Teladorsagia circumcincta dpy-31 transgenically-rescued Caenorhabditis elegans dpy-31 mutant TP224 assessed as induction of Dpy phenotype at 100 uM after 3 days by microscopic analysis. Format: functional, organism-based.
The test system of test [5] is Teladorsagia circumcincta. The test is described as follows: Antiparasitic activity against Teladorsagia circumcincta L3 assessed as induction of Dpy phenotype at 500 uM after 3 days by microscopic analysis. Format: functional, organism-based.

Structures are written as SMILES. Active and inactive are the calls of the source. No cut-off for these calls is given here. Where a SMILES comes first, the peptide text is derived from it.

Regarding `O=C(C[C@@H](CCCC1CCCCC1)c1nc(-c2cc(C(=O)O)ccn2)no1)NO`, the IC50 in test [1] (read-out: pIC50 (converted)) is 20 µM; in test [2] it was 39.8 µM.
As to `COC(=O)[C@@H]1CCCN1C(=O)[C@H](C)CP(=O)(O)[C@H](Cc1ccccc1)NC(=O)[C@H](CCCCN)NC(=O)[C@@H]1CCCN1C(=O)OCc1ccccc1`, in test [1] (read-out: IC50), the IC50 was above 500 µM.
With `C[C@H](NC(=O)[C@@H]1CCCN1C(=O)OC(C)(C)C)C(=O)N[C@@H](Cc1ccccc1)C(=O)NO` (HELM PEPTIDE1{[CC(C)(C)OC(=O)[*:2]].P.A.F.[ON[*:1]]}$$$$V2.0), the IC50 was 79.4 µM in test [1] (read-out: pIC50 (converted)) and 25.1 µM in test [2]. Also, the result (in the test with Caenorhabditis elegans [3]; in the test on Caenorhabditis elegans [4]; in test [5]) was Active.
`C[C@H](NC(=O)[C@@H]1CCCN1C(=O)OCC1c2ccccc2-c2ccccc21)C(=O)N[C@@H](Cc1ccccc1)C(=O)NO` (HELM PEPTIDE1{[O=C(OCC1c2ccccc2-c2ccccc21)[*:2]].P.A.F.[ON[*:1]]}$$$$V2.0): the IC50 in test [1] (read-out: pIC50 (converted)) is 25.1 µM; in test [2] it was 31.6 µM. The result (in the test on Caenorhabditis elegans [3]; in the test on Caenorhabditis elegans [4]; in test [5]) was Active.
On to `CNC(=O)[C@@H](NC(=O)[C@H](CC(C)C)[C@H](O)C(=O)NO)C(C)(C)C` [MARIMASTAT], for which, in test [2], the IC50 was 79.4 µM.

For the origin of these results see ChEMBL document CHEMBL3739343, “Identification and activity of inhibitors of the essential nematode-specific metalloprotease DPY-31” (Bioorg Med Chem Lett, 2015).
